Several values for one entry are separate records, joined by “and”; a condition that tells them apart may be missing. Equal values may be shown once.
Columns and labels:
[1] = tested on: Human glioblastoma cell (CGNH-89 cell line); test: Apoptosis by TUNEL method in human glioblastoma cells in vitro; format: cell-based
Description: (§1) Human glioblastoma cell (CGNH-89 cell line) was used at this experiment. These cells were randomly divided in the following three groups: a group of a glutamate-free medium (no glutamate group; control group); a group of the glutamate-free medium added 100 μM glutamate (100 μM glutamate group); a group of the glutamate-free medium added 100 μM glutamate and 20 μM NBQX (100 μM glutamate+20 μM NBQX group). The cells were incubated for 48 hours. The CGNH-89 cell was cultured in DMEM (Dulbecco's modified Eagle's medium) supplemented with 10% dialyzed fetal calf serum.
(§2) CGNH-89 cell line was established through resection from the tumor at the right front lobe of a person according to the Explant method by Nicolas et al. (Science 196, 60-63, 1977). […] Additionally, the mRNAs of GluR1 through GluR4 were analyzed with antibodies against the AMPA receptor subunits GluR1, GluR2, GluR3 and GluR4 and RT-PCR. Consequently, the cell line expresses GluR1 and GluR4 but not expresses GluR2 and GluR3. As described above, the cell line has the same profile as that of the cell of primary glioblastoma de novo.
(§3) The anti-tumor action was evaluated by calculating the apoptosis score by TUNEL method (terminal deoxynucleotide transferase (TdT)-mediated dUTP nick end labeling) 48 hours after culturing. Additionally, proliferation of the human glioblastoma cell was evaluated, using the antibody Ki67.
(§4) The results are shown as mean±standard deviation and statistically analyzed by the Student's t-test. Significance level was set at p<0.05.

[2] = tested on: Human glioblastoma cell (CGNH-89 cell line); test: Proliferation of human glioblastoma cells by Ki67 antibody staining in vitro; format: cell-based
Description: as §1, §2, §3, §4

C6 and RG2 glioma = C6 and RG2 glioma transplanted rats; cited from earlier work
[3] = tested on: CGNH-89 human glioblastoma; test: Growth inhibition on glioblastoma in vivo, CGNH-89 transplanted subcutaneously in nude mice; conditions: 100 mg/kg intraperitoneally for 14 days vs PBS; days 11 and 13 after onset and days 2, 4, 6, 8 after completion of administration
Description: Nude mice (5-6 weeks old) were used at this experiment. 10^7 cells of CGNH-89 used in Example 1 were transplanted subcutaneously in the nude mice. On the next day of transplantation, the mice were divided randomly in two groups; a group (n=12) to be administered with 100 mg/kg compound A and a group (n=12) to be administered with PBS (phosphate buffered saline). The drug was administered repeatedly intraperitoneally for 14 days starting on the next day of transplantation. Up to day 8 after the completion of the administration, the mice were observed. The tumor size was measured every two days with a vernier micrometer, to calculate the volume according to the formula (length×width^2)×½.
The results are shown in mean±standard deviation and statistically analyzed by the Student's t-test. The significance level was set at p<0.05.

[4] = 100 μM glutamate alone added to glutamate-free medium, 48 hours
[5] = 20 μM NBQX + 100 μM glutamate, 48 hours incubation, mean±SD
[6] = 20 μM NBQX with 100 μM glutamate, 48 hours

N[C@@H](CCC(=O)O)C(=O)O [glutamate]
TUNEL-SCORE (ratio of apoptosis) [1, 4]: 3% and 3.0 ± 2.0%
staining index with Ki-67 (proliferation inhibiting activity) [2, 4]: 18.5% and 18.5 ± 3.0%

C[C@]12N[C@H](Cc3ccccc31)c1ccccc12 [MK-801]
proliferation inhibition (C6 and RG2 glioma): exert a proliferation inhibition

O.O=C(O)Cn1c(=O)c(=O)[nH]c2cc([N+](=O)[O-])c(-n3ccnc3)cc21 [Compound A, [7-(1H-imidazol-1-yl)-6-nitro-2,3-dioxo-3,4-dihydroquinoxalin-1 (2H)-yl]acetic acid•monohydrate]
tumor growth inhibition (tumor volume) [3]: significant tumor growth inhibition

NS(=O)(=O)c1cccc2c1c([N+](=O)[O-])cc1nc(O)c(O)nc12 [NBQX, 2,3-dihydroxy-6-nitro-7-sulfamoyl-benzo(F)-quinoxaline]
TUNEL-SCORE (ratio of apoptosis) [1, 5]: 13.0 ± 2.0%
effect on glutamate-induced suppression of apoptosis [1, 6]: induced the apoptosis
staining index with Ki-67 (proliferation inhibiting activity) [2, 5]: 2.0 ± 1.0%
effect on glutamate-induced proliferative activity [2, 6]: suppressed the glutamate-induced proliferative activity

CC12CC3CC(C)(C1)CC(N)(C3)C2 [memantin]
proliferation inhibition (C6 and RG2 glioma): exert a proliferation inhibition
